Here are results for four molecules from paper PMC12472621, “Excavating Precursors from Herb Pairs Polygala tenuifolia and Acori tatarinowii: Synthesis and Anticonvulsant Activity Evaluation of 3,4,5-Trimethoxycinnamic Acid (TMCA) Piperazine Amide Derivatives” (Pharmaceuticals, 2025).

Values joined by “and” are separate entries in the source; they are usually repeats but may differ in a detail not shown here. Equal values may be shown once. Read-outs that look alike come from different tables or passages of the source.

The subject of series [1] is maximal electroshock (MES) induced seizures. As to the kind of experiment: Maximal electroshock (MES) test. The class given is in vivo, mice. The note with it: Mus musculus, ip; for ED50: 95% confidence intervals in parentheses. The source says: (§1) Male Kunming mice (23–28 g) were maintained under controlled conditions with ad libitum access to standard pellet diet and water. Test compounds were formulated immediately prior to administration in normal saline containing 0.5% Tween-80. Our experiment was authorized by the Institutional Animal Care and Use Committee of Shaanxi University of Chinese Medicine (animal ethics certificate number: SUCMDL20210309027).
The MES test carried out following the method of Swinyard. A 60 Hz current (50 mA; 0.25 s duration) was delivered via corneal electrodes using a YSD-4G electro convulsion meter (Zhenghua Instruments, Huaibei, China, SN: ZH0056232). […] Test compounds were suspended in an identical vehicle. Protection was defined as abolition of tonic hindlimb extension.

The subject of series [2] is scPTZ-induced seizures. As to the kind of experiment: Pentylenetetrazole (PTZ)-induced seizure test (scPTZ). The class given is in vivo. The note with it: 100 mg/kg i.p., PTZ 85 mg/kg s.c., mice. Here is the method: as §1
Seizures were induced by subcutaneous (s.c.) administration of PTZ (85 mg/kg in 1% v/v Tween-80/0.9% NaCl), 30 min after compound treatment. This dose produces clonic seizures (≥5 s duration) in 97% of naive mice. Latency to seizure onset was recorded during continuous observation.

In a further series the test system is LDH enzyme. Kind of series: In vitro LDH assay. The class given is biochemical. Here is the method:
Employing the commercial LDH enzyme (Solarbio Life Science, Beijing, China, CAS:9001-60-9, Lot. Document No. 14240222001) includes a colorimetric assay kit designed to assess the synthesized substances’ capacity to suppress the LDH enzyme, using established techniques with slight alterations. In summary, a 96-well microplate was filled with 30 μL of LDH enzyme (300 U/mL) and 70 μL of the inhibitor mixture (0.1 mM in final concentration). Following a 10 min pre-incubation process at ambient temperature, […] of NADH (0.2 mM) was introduced. Subsequently, each well received 40 μL of phosphate buffer (20 mM, pH 6.8), reaching a total volume of 250 μL, followed by a 10 min incubation of the assay plate at 28 °C. Subsequently, […] absorbance was gauged at 340 nm utilizing a SpectraMax 190 Absorbance Microplate Reader (Molecular Devices, San Jose, CA, USA). […] In the initial screening, the level of suppression by the test substances was denoted as a percentage (%). The calculation for the LDH inhibition ratio was as follows:Inhibition (%) = [(Asample − Ablank)/Acontrol] × 100%
Asample denotes the OD340 absorbance of test compound and Ablank is the OD340 absorbance for the blank. Acontrol represents the OD340 absorbance of control.

Series [3] is described as follows: Acute neurotoxicity screening (rotarod test). The class given is in vivo, mice. The note with it: male, Kunming, mouse, in vivo, ip, 30 min post-administration, 95% confidence intervals in parentheses. Here is the method: as §1
(§2) Neurotoxicity was assessed via a rotarod test. Mice were trained to maintain balance on a rotating rod (diameter: 4 cm; 24 rpm). Trained animals received i.p. injections of test compounds or reference drugs. At 30 min post-administration, neurologic impairment was defined as failure to remain on the rod for 3 min (≥3 falls within the testing period). Data were used to calculate TD50 values.

Series [4] concerns mice. Kind of series: Acute neurotoxicity screening (rotarod test). Type of series: in vivo. Particulars: i.p., 30 min post-administration, 95% confidence intervals in parentheses. Here is the method:
as §1, §2

For series [5], the system named is PTZ-induced epileptic spikes. As to the kind of experiment: Electroencephalogram (EEG) after PTZ. The class given is in vivo, mice. Particulars: 100 mg/kg i.p. The source says:
Mice sedated with urethane were subjected to aseptic craniotomy, involving the stereotaxic insertion of cortical screw electrodes aligned with bregma coordinates (anterior–posterior: +3.0 mm; mediolateral: ±1.5 mm) and a reference electrode (anterior–posterior: −2.0 mm; mediolateral: −1.5 mm). The electrodes were secured using dental acrylic, followed by a recovery period of 5–7 days for the animals before the instrumentation. The continuous EEG data were captured through using 8-channel bioamplifiers linked to a PowerLab 8/30 system (AD Instruments, Shanghai, China). After a 30 min acclimatization period in the recording chambers, initial activity levels were documented for 15–20 min. […] After 60 min, pentylenetetrazol (PTZ, 85 mg/kg i.p.) was administered, initiating seizure. Sampling of EEG signals occurred at a frequency of 200 Hz, utilizing a bandpass filter ranging from 0.1 to 60 Hz. Electrographic convulsions were characterized by spikes surpassing double the baseline amplitude, quantified by (1) the delay before the initial spike (seconds after PTZ); (2) the frequency of spikes (counts per 60 s period from the first spike) through established peak-detection methods.

Series [6] relates to LDH. As to the kind of experiment: Immunofluorescence staining for LDH in hippocampus. Type of series: in vivo. The note with it: hippocampus CA1, PTZ model mice. Here is the method: Brain samples were extracted, preserved in 4% paraformaldehyde for a day, and subsequently immersed in a 30% sucrose solution to dehydrate. Post OCT embedding, slices of brain tissue measuring 16 μm in thickness were sliced using a cryostat. Following the permeabilization using 0.5% TritonX-100 and subsequent blocking with 10% goat serum at ambient temperature to remove nonspecific staining, the tissue samples were subjected to overnight incubation at 4 °C with the primary antibody, LDHA (Proteintech (Rosemont, IL, USA), Cat No. 19987-1-AP, Lot: 00106920, rabbit anti-rat 1:200). On the next day, the slides underwent incubation using a secondary antibody. The slides underwent counterstaining using DAPI. […] slices were examined and visualized utilizing the VS200-BU Slide Scanner (Olympus Corporation, Tokyo, Japan).

The test system of series [7] is neurons in CA1 and CA3 regions of the hippocampus. As to the kind of experiment: Silver staining of hippocampal tissue. The class given is in vivo. Particulars: PTZ model mice, compared with PTZ group. Here is the method: Following the creation of the PTZ model, a modified version of the silver impregnation staining technique was applied for silver staining, enabling the observation of changes in neuronal fibers and synapses throughout diseases. Brain tissue slices from each mouse, encased in paraffin, underwent deparaffinization using xylene and absolute ethanol, followed by a treatment in acidic formaldehyde, and then incubation in a glycine–silver mixture. Following the application of a reducing solution for staining, the samples were analyzed using an optical microscope. Against a yellow backdrop, nerve cells’ axons, dendrites, collagen fibers, and neurofibrillary tangles were colored in dark brown or black.

Series [8] has as its system mice. Also noted: method as in PMID 31539780. The note with it: reference drug; cited from earlier work.
Series [9] relates to scPTZ-induced seizures. Also noted: method as in PMID 31539780. The note with it: reference drug; cited from earlier work.
In series [10] the test system is LDH. The note with it: original ligand of the LDH co-crystal complex; cited from earlier work.
Where [11] appears, read: 0.5 h, read-out: MES model, protected mice/total mice, 0.5 h.
[12] abbreviates: 1 h, read-out: MES model, protected mice/total mice, 1 h.
[13] abbreviates: 2 h, read-out: MES model, protected mice/total mice, 2 h.
Where [14] appears, read: 3 h, read-out: MES model, protected mice/total mice, 3 h.

In the case of `C/C=C/c1ccc(OC(=O)CCCN2CCN(C(=O)/C=C/c3cc(OC)c(OC)c(OC)c3)CC2)c(OC)c1` [A3, methoxy-4-((E)-prop-1-en-1-yl)phenyl 4-(4-((E)-3-(3,4,5-trimethoxyphenyl)acryloyl)piperazin-1-yl)butanoate], the responders at 100 mg/kg in series [1] (100 mg/kg i.p., mice, 0.5 h, read-out: MES model, protected mice/total mice, 0.5 h (converted)) was 100%; in series [1] (100 mg/kg i.p., mice, 1 h, read-out: MES model, protected mice/total mice, 1 h (converted)), 75%; in [1] (100 mg/kg i.p., mice, 2 h, read-out: MES model, protected mice/total mice, 2 h (converted)), 50%; in series [1] (100 mg/kg i.p., mice, 3 h, read-out: MES model, protected mice/total mice, 3 h (converted)), 25%. In addition, the ED50 in [1] (mice) amounted to 73.3 mg/kg. Besides, the “SCPTZ Latent Time (100 mg/kg, s)” value in the series on scPTZ-induced seizures [2] turned out to be 222.0 ± 14.7 s. In addition, in the series with scPTZ-induced seizures [2], the “SCPTZ Protective Ratio (100 mg/kg)” value is on record as 1/4. Further, in the series on LDH enzyme, the “LDH Inhibition Ratio (0.1 mM)” value is reported as 37.6 ± 8.1%. Also, the TD50 at 30 min in series [3] stood at 443 mg/kg. For the same molecule, the TD50 result with mice [4] is “weak neurotoxicity”.
With `COc1cc(/C=C/C(=O)N2CCN(C(=O)CCC(=O)N3CCN(C(c4ccc(F)cc4)c4ccc(F)cc4)CC3)CC2)cc(OC)c1OC` [B9, (E)-1-(4-(bis(4-fluorophenyl)methyl)piperazin-1-yl)-4-(4-(3-(3,4,5-trimethoxyphenyl)acryloyl)piperazin-1-yl)butane-1,4-dione], the responders at 100 mg/kg in [1] (setting [11]) was 100%; in series [1] (setting [12]), 75%; in series [1] (setting [13]), 25%; in series [1] (setting [14]), 0%. Further, the ED50 in series [1] (mice) was 23.6 mg/kg. The “latency to the first PTZ-induced epileptic spike (EEG)” value in series [5] (PTZ 85 mg/kg i.p. after 60 min) was “extended”. The “spike frequency within 60 s post-initial spike (EEG)” value in series [5] (compared to PTZ controls) is given as “significantly reduced”. The LDH immunolabelling intensity entry with LDH [6] is listed as “lower than the values found in the PTZ group”. Further, the “SCPTZ Latent Time (100 mg/kg, s)” value in the series with scPTZ-induced seizures [2] is 274.3 s and 274.3 ± 17.2 s. The “SCPTZ Protective Ratio (100 mg/kg)” value with scPTZ-induced seizures [2] was 3/4. The “silver staining, neurons in hippocampal CA1 and CA3” value in series [7] is “alleviated symptoms”. Moreover, the TD50 at 30 min in [3] amounted to 235 mg/kg.
As for `CC(C)(C)C(O)/C=C/c1ccc2c(c1)OCO2` (stereo not drawn) [STP, Stiripentol, reference compound], the responders at 100 mg/kg in series [1] (setting [11]) was 100%; in series [1] (setting [12]) it was 50%; in series [1] (setting [13]), 25%; in [1] (setting [14]), 0%. Further, the LDH immunolabelling intensity result with LDH [6] is listed as “lower than the values found in the PTZ group”. The TD50 with mice [8] is 161.7 (146.2–256.2) mg/kg. The “SCPTZ Latent Time (100 mg/kg, s)” value in the series on scPTZ-induced seizures [9] was 269.5 ± 19.8 s. The “SCPTZ Protective Ratio (100 mg/kg)” value in the series on scPTZ-induced seizures [9] was 2/4. Besides, the “silver staining, neurons in hippocampal CA1 and CA3” value in series [7] is recorded as “alleviated symptoms”. Further, the “LDH Inhibition Ratio (0.1 mM)” value in the series on LDH enzyme turned out to be 46.1 ± 6.2%.
Turning to `O=C1N[C@](c2ccc(N3CCOCC3)cc2)(c2ccsc2)CC(O)=C1Sc1ccccc1Cl` [GEN-140], the IC50 in the series on LDH [10] was 3 nM.
